Assay results reported in ChEMBL document CHEMBL1201862, “PubChem BioAssay data set” (2004).
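Tested at 5 concentrations; 48 h exposure; 96-well plates; endpoints linearly interpolated, else capped at highest concentration. GI50 is the concentration that inhibits growth by half.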 Calls of active or inactive are those of the source. Cut-off read from the data, not from the text of the source: active = GI50 up to about 1.1 µM and inactive = higher.

Tests used:
Assay in all cases: growth of human tumour cells (NCI), 48 h
LOX IMVI = tested on: LOX IMVI
786-0 = tested on: 786-0
HOP-62 = tested on: HOP-62
UACC-62 = tested on: UACC-62
T47D = tested on: T47D
SF-295 = tested on: SF-295
DU-145 = tested on: DU-145
RXF 393 = tested on: RXF 393
SK-OV-3 = tested on: SK-OV-3
MDA-N = tested on: MDA-N
MOLT-4 = tested on: MOLT-4
A498 = tested on: A498
OVCAR-3 = tested on: OVCAR-3
NCI-H23 = tested on: NCI-H23
HT-29 = tested on: HT-29
SK-MEL-2 = tested on: SK-MEL-2
Malme-3M = tested on: Malme-3M
MDA-MB-231 = tested on: MDA-MB-231
SR = tested on: SR

Measured: GI50

CCOC(=O)C1=C(C)NC(C)=C(C(=O)OCC)C1c1ccc(Cl)cc1
inactive: LOX IMVI 16.8 µM | 786-0 13 µM | HOP-62 14.8 µM | UACC-62 12.1 µM | T47D 15.6 µM | SF-295 12.7 µM | DU-145 17.3 µM | RXF 393 14.1 µM | SK-OV-3 16.7 µM | MDA-N 13.2 µM | MOLT-4 6.1 µM | A498 16.4 µM | OVCAR-3 15.8 µM | NCI-H23 14.4 µM | HT-29 10.9 µM | SK-MEL-2 18.7 µM | Malme-3M 18.1 µM | MDA-MB-231 15.3 µM

Cc1ccc(-c2n[nH]c(=O)n2N2C(=O)C=CC2=O)cc1
inactive: 786-0 > 100 µM | HOP-62 > 100 µM | UACC-62 > 100 µM | T47D > 100 µM | SF-295 > 100 µM | DU-145 > 100 µM | RXF 393 > 100 µM | SK-OV-3 > 100 µM | MOLT-4 > 100 µM | A498 > 100 µM | OVCAR-3 > 100 µM | NCI-H23 > 100 µM | HT-29 > 100 µM | SK-MEL-2 > 100 µM | SR > 100 µM | Malme-3M > 100 µM | MDA-MB-231 > 100 µM

c1ccc2c(c1)CCN(C1=NCCO1)C2
inactive: LOX IMVI > 10 µM | 786-0 > 10 µM | HOP-62 > 10 µM | UACC-62 > 10 µM | T47D > 10 µM | SF-295 > 10 µM | DU-145 > 10 µM | RXF 393 > 10 µM | SK-OV-3 > 10 µM | MDA-N > 10 µM | MOLT-4 > 10 µM | A498 > 10 µM | OVCAR-3 > 10 µM | NCI-H23 > 10 µM | HT-29 > 10 µM | SK-MEL-2 > 10 µM | Malme-3M > 10 µM | MDA-MB-231 > 10 µM

O=C(c1ccc(Cl)cc1)N(C(=O)N1CCC(c2ccccc2)CC1)c1ccccc1
inactive: LOX IMVI 28.1 µM | 786-0 70.3 µM | UACC-62 31.8 µM | T47D 11.1 µM | SF-295 31 µM | DU-145 59 µM | RXF 393 11.9 µM | SK-OV-3 > 100 µM | MDA-N 39.3 µM | MOLT-4 21.8 µM | A498 20.4 µM | OVCAR-3 44.8 µM | NCI-H23 23.9 µM | HT-29 31.3 µM | SK-MEL-2 37.2 µM | Malme-3M 10.4 µM | MDA-MB-231 26.1 µM

COc1ccc(/C=N/n2c(Cc3ccccc3)n[nH]c2=O)cc1
inactive: 786-0 > 100 µM | HOP-62 69.3 µM | UACC-62 > 100 µM | T47D > 100 µM | SF-295 39.8 µM | DU-145 > 100 µM | SK-OV-3 > 100 µM | MDA-N > 100 µM | MOLT-4 > 100 µM | A498 32.4 µM | OVCAR-3 > 100 µM | NCI-H23 94.8 µM | HT-29 > 100 µM | SK-MEL-2 > 100 µM | Malme-3M > 100 µM | MDA-MB-231 22.6 µM

Oc1c(-c2ccccc2)sc2ccccc12
inactive: LOX IMVI 15.5 µM | 786-0 22.4 µM | HOP-62 16.7 µM | UACC-62 49.3 µM | T47D 11 µM | SF-295 19.5 µM | DU-145 18.8 µM | RXF 393 14.7 µM | MOLT-4 24.7 µM | A498 31.4 µM | OVCAR-3 10.2 µM | NCI-H23 20.4 µM | HT-29 31.3 µM | SK-MEL-2 10.8 µM | SR 7.5 µM | Malme-3M 22.1 µM | MDA-MB-231 7.55 µM

CC[N+]1(C)CCC(O)(c2ccc(Cl)c(Cl)c2)C(C(=O)c2ccc(Cl)c(Cl)c2)C1 (centres undefined)
inactive: LOX IMVI > 10 µM | 786-0 > 10 µM | HOP-62 > 10 µM | T47D > 10 µM | SF-295 > 10 µM | DU-145 > 10 µM | RXF 393 > 10 µM | SK-OV-3 > 10 µM | MDA-N > 10 µM | MOLT-4 > 10 µM | A498 > 10 µM | OVCAR-3 > 10 µM | NCI-H23 > 10 µM | HT-29 > 10 µM | SK-MEL-2 > 10 µM | SR > 10 µM | Malme-3M > 10 µM

COC(=O)[C@H](C)N(C)C(=O)[C@H](C)N1[C@@H](c2ccccc2)COC1(C)C
inactive: LOX IMVI > 100 µM | 786-0 > 100 µM | HOP-62 > 100 µM | UACC-62 > 100 µM | T47D > 100 µM | SF-295 > 100 µM | RXF 393 > 100 µM | SK-OV-3 > 100 µM | MDA-N > 100 µM | MOLT-4 > 100 µM | A498 > 100 µM | OVCAR-3 > 100 µM | NCI-H23 > 100 µM | HT-29 > 100 µM | SK-MEL-2 > 100 µM | SR > 100 µM | Malme-3M > 100 µM | MDA-MB-231 > 100 µM

COc1ccc2c(c1)C1c3ccccc3CCN1CCC2 (centres undefined)
inactive: LOX IMVI 44.7 µM | 786-0 42.1 µM | HOP-62 58.6 µM | UACC-62 23.7 µM | T47D > 100 µM | SF-295 23.8 µM | DU-145 > 100 µM | RXF 393 47.6 µM | SK-OV-3 36.6 µM | MOLT-4 35.6 µM | A498 69.3 µM | OVCAR-3 73.8 µM | NCI-H23 47.9 µM | HT-29 33.3 µM | SK-MEL-2 23.1 µM | SR 32.2 µM | MDA-MB-231 35.8 µM

NC(=O)C1CCN(Cc2c(Cl)c(Cl)c(CN3CCC(C(N)=O)CC3)c(Cl)c2Cl)CC1
inactive: LOX IMVI > 100 µM | 786-0 77.1 µM | HOP-62 11.6 µM | UACC-62 > 100 µM | T47D > 100 µM | SF-295 23.7 µM | DU-145 > 100 µM | RXF 393 52.6 µM | SK-OV-3 15.1 µM | MOLT-4 > 100 µM | A498 28.3 µM | OVCAR-3 > 100 µM | NCI-H23 > 100 µM | HT-29 > 100 µM | SK-MEL-2 42.9 µM | SR > 100 µM | Malme-3M 90.8 µM | MDA-MB-231 28.8 µM

CN(/N=C\c1ccc2ccccc2c1)C1=NCCN1
inactive: LOX IMVI 11.2 µM | 786-0 15.6 µM | HOP-62 18.5 µM | UACC-62 18.3 µM | T47D 26.2 µM | SF-295 14.4 µM | DU-145 25.6 µM | RXF 393 8.63 µM | SK-OV-3 35.8 µM | MOLT-4 14.7 µM | A498 12.1 µM | OVCAR-3 31.9 µM | NCI-H23 30.7 µM | HT-29 13.3 µM | SK-MEL-2 15.2 µM | SR 17.3 µM | Malme-3M 15.6 µM | MDA-MB-231 16.4 µM

COC(=O)CCN(CCC(=O)OC)C1CC1
inactive: LOX IMVI > 100 µM | 786-0 > 100 µM | HOP-62 > 100 µM | UACC-62 > 100 µM | T47D > 100 µM | SF-295 > 100 µM | DU-145 > 100 µM | RXF 393 > 100 µM | SK-OV-3 > 100 µM | MOLT-4 > 100 µM | A498 > 100 µM | NCI-H23 > 100 µM | HT-29 > 100 µM | SR > 100 µM | Malme-3M > 100 µM | MDA-MB-231 > 100 µM

O=C(CC(C(=O)c1cccs1)c1ccsc1)c1ccco1 (centres undefined)
inactive: LOX IMVI 37.3 µM | 786-0 33.7 µM | HOP-62 64.1 µM | UACC-62 22.8 µM | T47D 24.7 µM | SF-295 39.7 µM | DU-145 31 µM | RXF 393 20.5 µM | SK-OV-3 41.3 µM | MDA-N 27.7 µM | MOLT-4 > 100 µM | A498 27.5 µM | OVCAR-3 54.8 µM | NCI-H23 19.5 µM | HT-29 4.8 µM | SR 41.8 µM

COc1ccc(C2c3c(-c4ccccc4)nn(-c4ccccc4)c3Oc3ncn(N)c(=N)c32)cc1OC (centres undefined)
inactive: LOX IMVI 1.69 µM | 786-0 1.67 µM | HOP-62 1.77 µM | UACC-62 1.92 µM | T47D 1.97 µM | SF-295 2.05 µM | DU-145 2.89 µM | RXF 393 1.84 µM | SK-OV-3 6.53 µM | MOLT-4 3.41 µM | A498 7.16 µM | OVCAR-3 1.63 µM | NCI-H23 2.54 µM | HT-29 1.93 µM | SK-MEL-2 1.83 µM | SR 3.53 µM | Malme-3M 1.6 µM | MDA-MB-231 1.71 µM

O=C1CCC(=O)N1n1c(Cc2ccc(Cl)cc2)n[nH]c1=O
inactive: LOX IMVI > 100 µM | 786-0 > 100 µM | UACC-62 > 100 µM | T47D > 100 µM | SF-295 > 100 µM | DU-145 > 100 µM | SK-OV-3 > 100 µM | MDA-N > 100 µM | MOLT-4 > 100 µM | A498 > 100 µM | OVCAR-3 > 100 µM | NCI-H23 > 100 µM | HT-29 > 100 µM | SK-MEL-2 > 100 µM | Malme-3M > 100 µM | MDA-MB-231 > 100 µM

CN1CC[C@]23c4c5ccc(O)c4OC2c2[nH]ncc2C[C@H]3[C@H]1C5 (some centres undefined)
inactive: LOX IMVI > 100 µM | 786-0 > 100 µM | HOP-62 > 100 µM | UACC-62 > 100 µM | T47D > 100 µM | SF-295 > 100 µM | DU-145 > 100 µM | RXF 393 > 100 µM | SK-OV-3 > 100 µM | MOLT-4 > 100 µM | OVCAR-3 > 100 µM | NCI-H23 > 100 µM | HT-29 > 100 µM | SK-MEL-2 > 100 µM | SR > 100 µM | Malme-3M > 100 µM | MDA-MB-231 > 100 µM
